Source: patent US20150246087A1, “EXTRACTS AND THERAPEUTIC USES THEREOF” (REGENERA PHARMA LTD., priority 2012, published 2015)
Values joined by “and” are separate entries in the source; they are usually repeats but may differ in a detail not shown here. Equal entries are not always repeated.

Columns and labels:
3T3 cells = assay: Cytotoxicity in 3T3 cells (XTT kit); assay type: cell-based; conditions: DMSO 10% control; 48 hr; single well of triplicate
Description: 3T3 cells (ATCC; CRL-1658) were seeded in a 96 well plate (4×10^3 cells per well), and 24 hr following cell adherence, cells were treated (in triplicate) with different concentrations (1-50 mg/ml) of the test items, or with the control items cottonseed oil alone, or 10% DMSO, or were left untreated. All treatments were introduced in a final volume of […] within a total volume of 100 μl/well. Cytotoxicity was determined 48 hr after additional of test items, using the XTT kit (Biological industries, Israel). Raw data was analyzed using Prism4 statistical software following blank reduction. The cottonseed oil vehicle treated control was used to calculate 100% viability and OD % was calculated.

ARPE-19 cells = assay: Neuronal-like differentiation of ARPE-19 retinal pigment epithelial cell cultures; assay type: cell-based, human; conditions: 2-10% w/w in cottonseed oil, compared to vehicle control
Description: ARPE-19 cells (obtained from the American Type Culture Collection, ATCC) were plated in flat bottom 96 well tissue culture microplates (Costar) at a concentration of 2-5×10^3 cells per well (1-2.5×10^4 cells/mL) in a growth medium consisting of DMEM:Ham F-12, 1:1, supplemented with 10% Fetal Bovine Serum, […] glutamine, 100 units/mL penicillin and 100 μg/mL streptomycin. The cells were allowed to adhere to the plate surfaces overnight prior to treatment with either RPh-CY or RPh-SA.
RPh-CY and RPh-SA were prepared essentially as described in Examples 2 and 4 respectively, to provide 10% solutions in a carrier composed of grape seed oil, olive oil, cottonseed oil, and Mygliol® (Mygliol® 810 or Mygliol® 812). […]
The cultures were incubated in a 37° C., 5% CO2 incubator for 48 hr. The medium was then removed, the cultures washed twice with phosphate buffered saline (PBS), fixed with absolute methanol for 10 min and stained with Hemacolor® reagents (Boehringer Mannheim), which stain cells in a manner similar to Giemsa, and may be used in a quantitative cell viability assay (see Keisari, Y. A colorimetric microtiter assay for the quantitation of cytokine activity on adherent cells in tissue culture. J. Immunol. Methods 146, 155-161, 1992). […]

Row | SMILES | OD at 450 (XTT) (3T3 cells) | change in ARPE-19 RPE cells (neurodifferentiation assay) (ARPE-19 cells)
1 | C[S+](C)[O-] [DMSO] | 0.238 and 0.233 and 0.234 | 
2 | CC(C)c1c(O)ccc2c1CC[C@H]1C(C)(C)CCC[C@]21C [totarol] |  | induced no change
